Values of other authors as cited in patent US20070135395A1, “Novel method for the preparation of intermediates useful for the synthesis fo vitamin d analogues” (Leo Pharma A/S, priority 2004, published 2007).

System: epidermal keratinocytes
Settings: cited: Castelijins et al., Acta Derm. Venereol. 79, 11, 1999

## C=C1/C(=C\C=C2/CCC[C@]3(C)[C@@H]([C@H](C)/C=C/[C@@H](O)C4CC4)CC[C@@H]23)C[C@@H](O)C[C@@H]1O [Calcipotriol, (5Z, 7E, 22E, 24S)-24-cyclopropyl-9,10-secochola-5,7,10(19),22-tetraene-1α-3β-24-triol]
  activity in inhibiting undesirable proliferation of epidermal keratinocytes: strong activity
